*1 amine or outer side, *2 acyl side, *3 side chain or, on linkers, in order; H or OH if unused. Where a SMILES comes first, the peptide text is derived from it. Side-chain parts run from the residue outwards. [ ]: non-standard residue; d: D form. The star is where a group is joined. C20 diacid = O=C(O)CCCCCCCCCCCCCCCCCCC(=O)*; γGlu = O=C(O)[C@H](CCC(=O)[*:2])N[*:1]; αMeF = C[C@](N)(Cc1ccccc1)C(=O)O; 4Pal = N[C@@H](Cc1ccncc1)C(=O)O; αMeL = CC(C)C[C@](C)(N)C(=O)O; AEEA = NCCOCCOCC(=O)O; Aib = CC(C)(N)C(=O)O
Biological target: T1, human GcgR (Homo sapiens, UniProt P47871)
T1 construct: expressed in transfected cells; crude membranes
Assay: [125I]-Glucagon binding, SPA with WGA beads, 0.1% bacitracin
Settings: geometric mean, read-out: hGcgR Ki
Method in brief: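 SPA competition binding with WGA beads on crude membranes from HEK293 cells stably expressing hGcgR. Buffer: 25 mM HEPES pH 7.4, 2.5 mM CaCl2, 1 mM MgCl2, 0.1% bacitracin, 0.003% Tween-20; 10-point 3-fold dilutions, NSB with 1 μM Gcg.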

T1 sequence (P47871 26-477): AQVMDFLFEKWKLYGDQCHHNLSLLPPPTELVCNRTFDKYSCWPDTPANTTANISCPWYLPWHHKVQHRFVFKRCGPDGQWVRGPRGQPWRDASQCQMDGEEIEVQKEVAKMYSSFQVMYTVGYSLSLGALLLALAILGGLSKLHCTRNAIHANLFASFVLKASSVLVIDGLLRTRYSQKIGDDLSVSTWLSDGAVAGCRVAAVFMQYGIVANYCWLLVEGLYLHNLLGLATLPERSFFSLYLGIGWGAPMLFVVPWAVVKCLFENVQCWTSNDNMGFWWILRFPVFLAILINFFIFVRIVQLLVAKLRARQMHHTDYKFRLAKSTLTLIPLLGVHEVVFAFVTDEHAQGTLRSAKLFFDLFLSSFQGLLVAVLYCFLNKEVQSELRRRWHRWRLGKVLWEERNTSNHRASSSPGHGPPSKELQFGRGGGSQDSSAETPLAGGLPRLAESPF

SMILES | Ki [nM]
CC[C@H](C)[C@H](NC(=O)[C@H](Cc1ccccc1)NC(=O)[C@@H](NC(=O)CNC(=O)[C@H](CCC(=O)O)NC(=O)C(C)(C)NC(=O)[C@@H](N)Cc1ccc(O)cc1)[C@@H](C)O)C(=O)N[C@@H](CO)C(=O)N[C@@H](CC(=O)O)C(=O)N[C@@H](Cc1ccc(O)cc1)C(=O)N[C@@H](CO)C(=O)N[C@H](C(=O)N[C@@](C)(CC(C)C)C(=O)N[C@@H](CC(C)C)C(=O)N[C@@H](CC(=O)O)C(=O)N[C@@H](CCCCN)C(=O)N[C@@H](CCCCNC(=O)COCCOCCNC(=O)COCCOCCNC(=O)CC[C@H](NC(=O)CCCCCCCCCCCCCCCCCCC(=O)O)C(=O)O)C(=O)N[C@@H](Cc1c[nH]cn1)C(=O)N[C@@H](CCC(N)=O)C(=O)NC(C)(C)C(=O)N[C@@H](CC(=O)O)C(=O)N[C@@H](Cc1ccccc1)C(=O)N[C@H](C(=O)N[C@@H](CCC(=O)O)C(=O)N[C@@H](Cc1ccc(O)cc1)C(=O)N[C@@H](CC(C)C)C(=O)N[C@@H](CC(C)C)C(=O)N[C@@H](CCC(=O)O)C(=O)NCC(=O)NCC(=O)N1CCC[C@H]1C(=O)N[C@@H](CO)C(=O)N[C@@H](CO)C(=O)NCC(=O)N[C@@H](C)C(=O)N1CCC[C@H]1C(=O)N1CCC[C@H]1C(=O)N1CCC[C@H]1C(=O)N[C@@H](CO)C(N)=O)C(C)C)[C@@H](C)CC [Example 69] (H-Y[Aib]EGTFISDYSI[αMeL]LDKK([AEEA-AEEA-γGlu-C20 diacid])HQ[Aib]DFVEYLLEGGPSSGAPPPS-NH2) | 114
CC[C@H](C)[C@H](NC(=O)[C@H](Cc1ccccc1)NC(=O)[C@@H](NC(=O)CNC(=O)[C@H](CCC(=O)O)NC(=O)C(C)(C)NC(=O)[C@@H](N)Cc1ccc(O)cc1)[C@@H](C)O)C(=O)N[C@@H](CO)C(=O)N[C@@H](CC(=O)O)C(=O)N[C@@H](Cc1ccc(O)cc1)C(=O)N[C@@H](CO)C(=O)N[C@H](C(=O)N[C@@](C)(CC(C)C)C(=O)N[C@@H](CC(C)C)C(=O)N[C@@H](CC(=O)O)C(=O)N[C@@H](CCCCN)C(=O)N[C@@H](CCCCNC(=O)COCCOCCNC(=O)COCCOCCNC(=O)CC[C@H](NC(=O)CCCCCCCCCCCCCCCCCCC(=O)O)C(=O)O)C(=O)N[C@@H](Cc1c[nH]cn1)C(=O)N[C@@H](CCC(N)=O)C(=O)NC(C)(C)C(=O)N[C@@H](CC(=O)O)C(=O)N[C@@H](Cc1ccccc1)C(=O)N[C@H](C(=O)N[C@@H](CCC(=O)O)C(=O)N[C@@H](Cc1c[nH]c2ccccc12)C(=O)N[C@@H](CC(C)C)C(=O)N[C@@H](CC(C)C)C(=O)N[C@@H](CCC(=O)O)C(=O)N[C@H](C(=O)NCC(=O)N1CCC[C@H]1C(=O)N[C@@H](CO)C(=O)N[C@@H](CO)C(=O)NCC(=O)N[C@@H](C)C(=O)N1CCC[C@H]1C(=O)N1CCC[C@H]1C(=O)N1CCC[C@H]1C(=O)N[C@@H](CO)C(N)=O)[C@@H](C)O)C(C)C)[C@@H](C)CC [Example 71] (H-Y[Aib]EGTFISDYSI[αMeL]LDKK([AEEA-AEEA-γGlu-C20 diacid])HQ[Aib]DFVEWLLETGPSSGAPPPS-NH2) | 102
CC[C@H](C)[C@H](NC(=O)[C@H](Cc1ccccc1)NC(=O)[C@@H](NC(=O)CNC(=O)[C@H](CCC(=O)O)NC(=O)C(C)(C)NC(=O)[C@@H](N)Cc1ccc(O)cc1)[C@@H](C)O)C(=O)N[C@@H](CO)C(=O)N[C@@H](CC(=O)O)C(=O)N[C@@H](Cc1ccc(O)cc1)C(=O)N[C@@H](CO)C(=O)N[C@H](C(=O)N[C@@](C)(CC(C)C)C(=O)N[C@@H](CC(C)C)C(=O)N[C@@H](CC(=O)O)C(=O)N[C@@H](CCCCN)C(=O)N[C@@H](CCCCNC(=O)COCCOCCNC(=O)COCCOCCNC(=O)CC[C@H](NC(=O)CCCCCCCCCCCCCCCCCCC(=O)O)C(=O)O)C(=O)N[C@@H](Cc1c[nH]cn1)C(=O)N[C@@H](CCC(N)=O)C(=O)NC(C)(C)C(=O)N[C@@H](CCC(=O)O)C(=O)N[C@@H](Cc1ccccc1)C(=O)N[C@H](C(=O)N[C@@H](CCC(=O)O)C(=O)N[C@@H](Cc1ccncc1)C(=O)N[C@@H](CC(C)C)C(=O)N[C@@H](CC(C)C)C(=O)N[C@@H](C)C(=O)NCC(=O)NCC(=O)N1CCC[C@H]1C(=O)N[C@@H](CO)C(=O)N[C@@H](CO)C(=O)NCC(=O)N[C@@H](C)C(=O)N1CCC[C@H]1C(=O)N1CCC[C@H]1C(=O)N1CCC[C@H]1C(=O)N[C@@H](CO)C(N)=O)C(C)C)[C@@H](C)CC [Example 52] | 114
CC[C@H](C)[C@H](NC(=O)[C@H](CO)NC(=O)[C@H](Cc1ccc(O)cc1)NC(=O)[C@H](CC(=O)O)NC(=O)[C@H](CO)NC(=O)[C@@H](NC(=O)[C@](C)(Cc1ccccc1)NC(=O)[C@@H](NC(=O)CNC(=O)[C@H](CCC(=O)O)NC(=O)C(C)(C)NC(=O)[C@@H](N)Cc1ccc(O)cc1)[C@@H](C)O)[C@@H](C)CC)C(=O)N[C@@H](C)C(=O)N[C@@H](CC(C)C)C(=O)N[C@@H](CC(=O)O)C(=O)N[C@@H](CCCCN)C(=O)N[C@@H](CCCCNC(=O)COCCOCCNC(=O)COCCOCCNC(=O)CC[C@H](NC(=O)CCCCCCCCCCCCCCCCCCC(=O)O)C(=O)O)C(=O)N[C@@H](Cc1c[nH]cn1)C(=O)N[C@@H](CCC(N)=O)C(=O)NC(C)(C)C(=O)N[C@@H](CC(=O)O)C(=O)N[C@@H](Cc1ccccc1)C(=O)N[C@H](C(=O)N[C@@H](CCC(=O)O)C(=O)N[C@@H](Cc1ccncc1)C(=O)N[C@@H](CC(C)C)C(=O)N[C@@H](CC(C)C)C(=O)N[C@@H](CCC(=O)O)C(=O)N[C@@H](CCC(N)=O)C(=O)NCC(=O)N1CCC[C@H]1C(=O)N[C@@H](CO)C(=O)N[C@@H](CO)C(=O)NCC(=O)N[C@@H](C)C(=O)N1CCC[C@H]1C(=O)N1CCC[C@H]1C(=O)N1CCC[C@H]1C(=O)N[C@@H](CO)C(N)=O)C(C)C [Example 42] (H-Y[Aib]EGT[αMeF]ISDYSIALDKK([AEEA-AEEA-γGlu-C20 diacid])HQ[Aib]DFVE[4Pal]LLEQGPSSGAPPPS-NH2) | 99.1
CC[C@H](C)[C@H](NC(=O)[C@H](CO)NC(=O)[C@H](Cc1ccc(O)cc1)NC(=O)[C@H](CC(=O)O)NC(=O)[C@H](CO)NC(=O)[C@@H](NC(=O)[C@](C)(Cc1ccccc1)NC(=O)[C@@H](NC(=O)CNC(=O)[C@H](CCC(=O)O)NC(=O)C(C)(C)NC(=O)[C@@H](N)Cc1ccc(O)cc1)[C@@H](C)O)[C@@H](C)CC)C(=O)N[C@@](C)(CC(C)C)C(=O)N[C@@H](CC(C)C)C(=O)N[C@@H](CC(=O)O)C(=O)N[C@@H](CCCCN)C(=O)N[C@@H](CCCCNC(=O)COCCOCCNC(=O)COCCOCCNC(=O)CC[C@H](NC(=O)CCCCCCCCCCCCCCCCCCC(=O)O)C(=O)O)C(=O)N[C@@H](Cc1c[nH]cn1)C(=O)N[C@@H](CCC(N)=O)C(=O)NC(C)(C)C(=O)N[C@@H](CCC(=O)O)C(=O)N[C@@H](Cc1ccccc1)C(=O)N[C@H](C(=O)N[C@@H](CCC(=O)O)C(=O)N[C@@H](Cc1ccncc1)C(=O)N[C@@H](CC(C)C)C(=O)N[C@@H](CC(C)C)C(=O)N[C@@H](C)C(=O)N[C@H](C(=O)NCC(=O)N1CCC[C@H]1C(=O)N[C@@H](CO)C(=O)N[C@@H](CO)C(=O)NCC(=O)N[C@@H](C)C(=O)N1CCC[C@H]1C(=O)N1CCC[C@H]1C(=O)N1CCC[C@H]1C(=O)N[C@@H](CO)C(N)=O)[C@@H](C)O)C(C)C [Example 61] (H-Y[Aib]EGT[αMeF]ISDYSI[αMeL]LDKK([AEEA-AEEA-γGlu-C20 diacid])HQ[Aib]EFVE[4Pal]LLATGPSSGAPPPS-NH2) | 80.4
